Experiments:
[1] = Cytotoxicity against BALB/C mouse T lymphocytes assessed as cell viability at 40 uM after 8 to 10 hrs by CCK-8 assay relative to control; type: cell-based; settings: read-out: Activity
[2] = Cytotoxicity against BALB/C mouse B lymphocytes assessed as cell viability at 40 uM after 8 to 10 hrs by CCK-8 assay relative to control; type: cell-based; settings: read-out: Activity
T-cell = experiment: Immunosuppressive activity against BALB/C mouse T lymphocytes assessed as reduction in concanavalin A-induced cell proliferation by measuring [3H]-thymidine uptake incubated for 8 hrs by Beta scintillation counting method; type: functional, cell-based
B-cell line = experiment: Immunosuppressive activity against BALB/C mouse B lymphocytes assessed as reduction in LPS-induced cell proliferation by measuring [3H]-thymidine uptake incubated for 8 hrs by Beta scintillation counting method; type: functional, cell-based

SMILES | viability at 40 µM [1] | viability at 40 µM [2] | IC50 (T-cell) | IC50 (B-cell line)
CC1(O)CCC[C@]2(C)C3=C(C[C@@]4(C)CCO[C@@H]3C4)[C@@H](O)C[C@@H]12 (stereo partly drawn) | > 85% | > 85% | – | –
C=C1CC[C@H]2[C@@](C)(CO)CCC[C@]2(C)[C@H]1CC/C(C)=C/CO | > 85% | > 85% | 15.6 µM | 47.2 µM
C[C@@]12CCO[C@@H]1C1=CC[C@H]3[C@](C)(O)[C@H](O)CC[C@]3(C)[C@H]1CC2 | > 85% | > 85% | – | –
C[C@]1(CCO)CCC2=C(C1)C(=O)C[C@H]1[C@](C)(O)CCC[C@]21C | > 85% | > 85% | – | –
C[C@]1(CCO)CC[C@H]2C(=CC[C@@H]3[C@]2(C)CCC[C@@]3(C)O)C1 | > 85% | > 85% | 1 µM | 16.1 µM
C[C@@]12CCO[C@@H]1C1=CC[C@H]3[C@](C)(CO)CCC[C@]3(C)[C@H]1CC2 | > 85% | > 85% | – | –
C[C@@]12CCO[C@@H]1C1=CC[C@H]3[C@@](O)(CO)CCC[C@]3(C)[C@H]1CC2 | > 85% | > 85% | 11.1 µM | 35.1 µM
C[C@@]12CCO[C@@H]1C1=CC[C@@H]3[C@](C)(CCC[C@@]3(C)O)[C@H]1CC2 | > 85% | > 85% | 27.2 µM | 40 µM
C[C@@]12CCO[C@@H]1C1=CC[C@H]3[C@@](C)(O)[C@@H](O)CC[C@]3(C)[C@H]1CC2 | > 85% | > 85% | – | –
C[C@@]12CCO[C@@H]1C1=CC[C@@H]3[C@](C)(CCC[C@]3(C)O)[C@H]1CC2 | > 85% | > 85% | 21.1 µM | 51.8 µM
C[C@]12CC[C@H]3C(=CC[C@@H]4[C@]3(C)CCC[C@@]4(C)O)[C@H]1OC[C@@H]2O | > 85% | > 85% | – | –
C[C@@]12CCO[C@@H]1C1=CC[C@H]3[C@](C)(O)[C@@H](O)CC[C@]3(C)[C@H]1CC2 | > 85% | > 85% | – | –
C[C@]12CCC[C@@](C)(O)[C@@H]1CC=C1[C@H]3OC[C@@H](O)[C@@]3(C)CC[C@@H]12 | > 85% | > 85% | 4 µM | 46 µM
C[C@@]12CCO[C@@H]1C1=C[C@@H](O)[C@@H]3[C@](C)(CCC[C@]3(C)O)[C@H]1CC2 | > 85% | > 85% | 14.9 µM | 49.4 µM
C[C@@]1(CCO)CC2=CC[C@@H]3[C@](C)(CCC[C@@]3(C)O)[C@H]2[C@H](O)C1 | > 85% | > 85% | – | –
C[C@@]12CCO[C@@H]1C1=CC[C@H]3[C@H](O)CCC[C@]3(C)[C@H]1CC2 | > 85% | > 85% | – | –
C[C@]1(CCO)CC[C@H]2C(=CC[C@@H]3[C@]2(C)CCC[C@]3(C)O)C1 | > 85% | > 85% | – | –
C[C@]1(CCO)CC[C@H]2C(=CC[C@H]3[C@H](O)CCC[C@]23C)C1 | > 85% | > 85% | – | –
C[C@@]12CCO[C@@H]1C1=CC[C@H]3[C@H](CO)CCC[C@]3(C)[C@H]1CC2 | > 85% | > 85% | 6.6 µM | 38.2 µM
C[C@]1(CCO)CC=C2C(=CC[C@H]3[C@](C)(O)CCC[C@]23C)C1 | > 85% | > 85% | – | –
C[C@@H]1C[C@H]2[C@@H]3CCC4=CC(=O)C=C[C@]4(C)[C@@]3(F)[C@@H](O)C[C@]2(C)[C@@]1(O)C(=O)CO [DEXAMETHASONE] | – | – | 1.6 µM | 0.8 µM
